These results are taken from US20240189315A1, “Cyclic Pyridine Derivatives as cGAS Inhibitors” (Boehringer Ingelheim International GmbH, priority 2022, published 2024).

Read-outs that look alike come from different tables or passages of the source.

Experiment [1] addresses Human cGAS enzyme (Homo sapiens (Human), UniProt Q8N884). Briefly: Human cGAS enzyme assay (hcGAS IC50, in vitro), cGAMP formation by RapidFire MS.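 Further: recombinant human cGAS activated by 45 bp dsDNA with 30 µM each ATP and GTP, 90 min, cGAMP vs cyclic-di-GMP standard by MS, 8-point titration from 10 µM.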 It is filed as biochemical.
The target of experiment [2] is cellular cGAS activity in baculovirus-stimulated THP1-Dual cells (Homo sapiens (Human), UniProt Q8N884). Briefly: Human cGAS cell assay (THP1(vir) IC50): IFN induction in virus-stimulated THP1-Dual cells, IRF Lucia luciferase reporter.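 Further: Eight-point dilution series starting at 10 µM, 1% DMSO, 18 h at 37 °C, luminescence read-out, virus-free wells as 0% and DMSO-treated virus-stimulated wells as 100%.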 The experiment is classed as cell-based. (In general: Reporter assays use an easily measured gene product as a stand-in for the process of interest.)
Sequence of cellular cGAS activity in baculovirus-stimulated THP1-Dual cells (Q8N884 whole entry): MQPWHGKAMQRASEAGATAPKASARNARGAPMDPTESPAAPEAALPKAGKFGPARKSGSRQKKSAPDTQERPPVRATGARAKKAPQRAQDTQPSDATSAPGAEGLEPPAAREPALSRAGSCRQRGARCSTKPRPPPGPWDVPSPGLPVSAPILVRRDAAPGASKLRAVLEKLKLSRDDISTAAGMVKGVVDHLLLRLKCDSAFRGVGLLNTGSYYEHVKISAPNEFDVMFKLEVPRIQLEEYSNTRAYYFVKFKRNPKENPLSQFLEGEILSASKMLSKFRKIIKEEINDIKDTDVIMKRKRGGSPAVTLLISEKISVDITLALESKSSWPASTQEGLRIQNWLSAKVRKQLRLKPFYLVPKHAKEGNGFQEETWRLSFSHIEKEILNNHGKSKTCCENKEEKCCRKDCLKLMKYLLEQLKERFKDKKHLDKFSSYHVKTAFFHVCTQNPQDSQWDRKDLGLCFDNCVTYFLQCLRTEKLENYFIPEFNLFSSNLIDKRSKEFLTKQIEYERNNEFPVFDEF

Experiment [3] relates to pathway directly downstream of cGAS in cGAMP-stimulated THP1-Dual cells. Briefly: cGAMP stimulated counter cell assay (THP1(cGAMP) IC50): IFN induction in cGAMP-stimulated THP1-Dual cells. It is filed as cell-based, human. The conditions noted are these: for IC50: Homo sapiens, THP1-Dual; for Ratio THP(cGAMP) IC50/ THP(vir) IC50: selectivity for cGAS inhibition. The text has this: 6.2 Method: Human cGAS Cell Assay and cGAMP Stimulated Counter Cell Assay (THP1(vir) IC50 and THP1(cGAMP) IC50)
THP1-Dual™ cells (InvivoGen #thpd-nfis) expressing IRF dependent Lucia luciferase reporter were used as basis for both assays. For the detection of cellular cGAS activity cells were stimulated by a baculovirus (pFastbac-1, Invitrogen, no coding insert) infection that delivers the cGAS enzyme stimulating double-stranded DNA (measurement of THP1(vir) IC50).
For the counter assay, cells were stimulated by cGAMP (SigmaAldrich #SML1232) to activate the identical pathway independent and directly downstream of cGAS (measurement of THP1(cGAMP) IC50). Pathway activity was monitored by measuring the Lucia luciferase activity induced by either DNA stimulated cGAS enzyme activity (measurement of THP1(vir) IC50) or by cGAMP directly (measurement of THP1(cGAMP) IC50, counter assay).
Compounds were delivered in 10 mM DMSO solution, serially diluted and transferred to the 384 well assay plate (Greiner #781201) using an Echo acoustic dispenser. Typically, 8 concentrations were used with the highest concentration at 10 μM in the final assay volume followed by ˜1:5 dilution steps. DMSO concentration was set to 1% in the final assay volume. The 384 well assay plate contained 21 test compounds (column 1-22), and DMSO in column 23 and 24.
Cells, cultivated according to manufacturer conditions, were harvested by centrifugation at 300 g/10 min and were then resuspended and diluted to 1.66E5 cells/ml in fresh cell culture medium (RPMI 1640 (Gibco #A10491-01), 10% FCS (Gibco #10500), 1× GlutaMax (Gibco #35050-061), 1× Pen/Strep solution (Gibco #15140-122), 100 μg/ml Normocin (InvivoGen #ant-nr), 100 μg/ml Zeocin (InvivoGen #ant-zn), 10 μg/ml Blasticidin S (Life Technologies #A11139-03)). The baculovirus solution was then added 1:200 (have varied according to virus batch) to the cells (measurement of THP1(vir) IC50). […] 30 μL of the cell/virus-mix were added to each well of the compound plate from column 1-23 via MultiDrop Combi dispenser (5000 cells/well). In column 24, 30 μl/5000 cells/well without virus were added as a low control.
The plates were then incubated for 18 h at 37° C. in a humidified incubator.
Following that, 15 μL of QuantiLuc detection reagent (InvivoGen #rep-qlcg5) were added to each well using a MultiDrop Combi. Measurement was done immediately after the addition using an EnVision reader (US-luminescence read-mode).
Data Evaluation and Calculation:
For data evaluation and calculation, the measurement of the low control was set as 0% control and the measurement of the high control was set as 100% control. The IC50 values were calculated using the standard 4 parameter logistic regression formula. Calculation: [y=(a−d)/(1+(x/c)^b)+d], a=low value, d=high value; x=conc M; c=IC50 M; b=slope

Experiment [4] deals with cellular cGAS activity in dsDNA-stimulated human whole blood (Homo sapiens (Human), UniProt Q8N884). Briefly: Human whole blood assay (hWB IC50): IFNα2a production after dsDNA transfection.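 Further: IFNα-2a in plasma measured by MSD electrochemiluminescence immunoassay after 22 h at 37 °C, 8-point dilution series from 10 µM top concentration, DMSO wells as controls.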 It is filed as cell-based.
Sequence of cellular cGAS activity in dsDNA-stimulated human whole blood (Q8N884 whole entry): as above
Procedure: 6.3 Method: Human Whole Blood Assay (Human WB IC50) For the detection of cellular cGAS activity human whole blood was stimulated by transfection with double stranded DNA. Pathway activity was monitored by measuring the IFNα2α production.
Compounds were delivered as 10 mM DMSO solution and serially diluted and transferred to the 96-well cell culture plate (Corning #3595), prefilled with 20 μl OptiMEM (Gibco, #11058-021) in each well, using an Echo acoustic dispenser. Typically, 8 concentrations were used with the highest concentration at 10 μM in the final assay volume followed by ˜1:5 dilution steps. DMSO concentration was set to 0.1% in the final assay volume. The 96-well assay plate contained 10 test compounds, and DMSO in control wells.
Collection of human whole blood from 3 or more healthy donors (male or female, no medication for 7 days except contraceptive and thyroxine) as Na-Citrate blood (e.g. 3.8% in Monovettes from Sarstedt) was conducted in parallel. Whole blood was kept at room temperature for a maximum of 3 hours after collection until use in the assay.
160 μl of the whole blood samples was transferred to each well of the 96-well assay plates filled with compound/OptiMEM. All assay plates were prepared as duplicates with blood from different donors. Blood plates were kept at room temperature for 60 minutes and continuous shaking with 450 rpm, covered with the lid, but not sealed.
20 μl OptiMEM and 9.6:1 Fugene was added to all low control wells.
After covering assay plates with area seals and the lid, blood plates were kept at room temperature for 30 minutes and continuous shaking with 450 rpm, followed by an overnight incubation of 22 h at 37° C. in the incubator, without shaking.
For the detection of IFNα-2a in human plasma, the biotinylated capture antibody (Antibody set IFNA2, Meso Scale Diagnostics #B21VH-3, including coating and capture antibody) was diluted 1:17.5 in Diluent 100 (Meso Scale Diagnostics #R50AA-4), according to the manufacturer's directions. U-Plex MSD GOLD 96-well Small Spot Strepavidin SECTOR Plates (Meso Scale Diagnostics #L45SA-5) were coated with 25 μl diluted capture antibody. Coated plates were incubated for 60 min at room temperature under continuous shaking at 700 rpm. MSD IFNα-2a plates were washed three times with 150 μl wash buffer (1×HBSS, 0.05% Tween).
After blocking the plates with 100 μl block solution/well (1×HBSS with 0.2% Tween, 2% BSA) for 60 min at room temperature and continuous shaking at 700 rpm, plates were emptied as dry as possible by dumping just before continuing with the human plasma.
Whole Blood assay plates were centrifuged at 1600 rpm for 10 minutes. 25 μl of supernatant was transferred with a pipetting robot from each whole blood plate to the corresponding IFNα-2a plate.
Plates were sealed with microplate seals and kept at room temperature again under continuous shaking at 700 rpm for two hours.
Next MSD IFNα-2a plates were washed three times with 150 μl wash buffer (1×HBSS, 0.05% Tween), before adding 25 μl MSD SULFO-TAG IFNα-2a Antibody solution (1:100 diluted in Diluent 3 (Meso Scale Diagnostics #R50AP-2) to each well of the plates.
Afterwards plates were sealed with microplate seals and kept at room temperature again under continuous shaking at 700 rpm for two hours. Finally, MSD IFNα-2a plates were washed three times with 150 μl wash buffer (1×HBSS, 0.05% Tween). 150 μl 2× Read buffer was added to each well and plates were immediately measured with the MSD Sector S600 Reader using the vendor barcode.
For data evaluation and calculation,% control calculation of each well was based on the mean of high (DNA stimulated control) and mean of low (unstimulated control) controls by using the following formula:
The IC50-values were calculated using the standard 4 parameter logistic regression formula.
Setting [5] is: Table 1, virus-stimulated THP1 cells, read-out: THP(vir) IC50.
Setting [6] is: Table 1, cGAMP-stimulated THP1 cells, read-out: THP(cGAMP) IC50.
Where [7] appears, read: Table 1, dsDNA-stimulated human whole blood.

Sequence of Human cGAS enzyme (Q8N884 whole entry): as above

With `C[C@H]1CN2CC[C@]1(F)c1cc(Cl)cnc1O[C@H]1C[C@@H](C(=O)O)N(C1)c1nc(nc3c1oc1ccccc13)COCCCOC2=O` [Example 13, (1R,9S,11S,34S)-4-chloro-1-fluoro-34-methyl-31-oxo-8,15,26,30-tetraoxa-6,12,23,32,37-pentaaabestacyclo[30.2.2.1^9,12.1^13,24.0^14,22.0^16,21]octatriaconta-2(7),3,5,13(37),14(22),16(21),17,19,23-nonaene-11-carboxylic acid], the half-inhibitory concentration (IC50) (commonly the concentration at which inhibition is half-maximal) in experiment [1] (Table 1) was found to be 22 nM; in experiment [2] (setting [5]), 42 nM; in experiment [3] (setting [6]), 16000 nM; in experiment [4] (setting [7]), 149 nM. Moreover, the “Ratio THP(cGAMP) IC50/ THP(vir) IC50” value in experiment [3] (Table 1) is on record as 256.
Turning to `C[C@H]1CN2CC[C@]1(F)c1cc(Cl)cnc1O[C@H]1C[C@@H](C(=O)O)N(C1)c1nc(nc3c1oc1cc(Cl)ccc13)C(F)(F)CCCOCC2=O` [Example 33], the IC50 came to 5 nM in experiment [1] (Table 1), 3 nM in experiment [2] (setting [5]), 6400 nM in experiment [3] (setting [6]) and 16 nM in experiment [4] (setting [7]). For the same molecule, the “Ratio THP(cGAMP) IC50/ THP(vir) IC50” value in experiment [3] (Table 1) turned out to be 2085.
As to `C[C@H]1CN2CC[C@]1(F)c1cccnc1O[C@H]1C[C@@H](C(=O)O)N(C1)c1nc(nc3c1oc1ccccc13)CCCOCCC2=O` [Example 24, (1R,9S,11S,34S)-1-fluoro-34-methyl-31-oxo-8,15,28-trioxa-6,12,23,32,37-pentaazaheptacyclo-[30.2.2.1^9,12.1^13,24.0^2,7.0^14,22.0^16,21]octatriaconta-2,4,6,13(37),14(22),16(21),17,19,23-nonaene-11-carboxylic acid], the IC50 in experiment [1] (Table 1) is 28 nM; in experiment [2] (setting [5]), 640 nM; in experiment [3] (setting [6]), more than 10000 nM; in experiment [4] (setting [7]) it was 801 nM. In addition, the “Ratio THP(cGAMP) IC50/ THP(vir) IC50” value in experiment [3] (Table 1) was found to be 16.
The corresponding values for `C[C@H]1CN2CC[C@]1(F)c1cc(Br)cnc1O[C@H]1C[C@@H](C(=O)O)N(C1)c1nc(nc3c1oc1ccccc13)CCOCCCC2=O` [Example 17] are 13 nM, 140 nM, 5600 nM, 96 nM and 40.
For the molecule `C[C@H]1CN2CC[C@]1(F)c1cc(Cl)cnc1O[C@H]1C[C@@H](C(=O)O)N(C1)c1nc(nc3c1oc1ccccc13)C(F)(F)CCCCC(F)(F)C2=O` [Example 06, (1R,9S,11S,34S)-4-chloro-1,25,25,30,30-pentafluoro-34-methyl-31-oxo-8,15-dioxa-6,12,23,32,37-pentaazaheptacyclo[30.2.2.1^9,12.1^13,24.0^2,7.0^14,22.0^16,21]-octatriaconta-2,4,6,13(37),14(22),16(21),17,19,23-nonaene-11-carboxylic acid], the half-maximal inhibitory concentration (IC50) was 18 nM in experiment [1] (Table 1), 150 nM in experiment [2] (setting [5]), more than 10000 nM in experiment [3] (setting [6]) and 222 nM in experiment [4] (setting [7]). Moreover, the “Ratio THP(cGAMP) IC50/ THP(vir) IC50” value in experiment [3] (Table 1) was determined as 65.
The corresponding values for `COc1ncccc1-c1cnc2c(c1)[C@@]1(F)CCN(C[C@@H]1C)C(=O)CCCOCCc1nc(c3oc4ccccc4c3n1)N1C[C@H](C[C@H]1C(=O)O)O2` [Example 20.01, (1R,9S,11S,34S)-1-fluoro-4-(2-methoxypyridin-3-yl)-34-methyl-31-oxo-8,15,27-trioxa-6,12,23,32,37-pentaazaheptacyclo[30.2.2.1^9,12.1^13,24.0^2,7.0^14,22.0^16,21]octatriaconta-2,4,6,13(37),14(22),16(21),17,19,23-nonaene-11-carboxylic acid] are 18 nM, 19 nM, 8100 nM, 45 nM and 419.
In the case of `C[C@H]1CN2CC[C@]1(F)c1cc(Cl)cnc1O[C@H]1C[C@@H](C(=O)O)N(C1)c1nc(nc3c1oc1ccccc13)COCCCCCC2=O` [Example 12], the IC50 in experiment [1] (Table 1) is 17 nM; in experiment [2] (setting [5]) it was 610 nM; in experiment [3] (setting [6]), 10000 nM; in experiment [4] (setting [7]) it was 84 nM. The “Ratio THP(cGAMP) IC50/ THP(vir) IC50” value in experiment [3] (Table 1) was determined as 17.
As to `C[C@H]1CN2CC[C@]1(F)c1cc(Cl)cnc1O[C@H]1C[C@@H](C(=O)O)N(C1)c1nc(nc3c1oc1ccccc13)COCCCC(F)(F)C2=O` [Example 10, (1R,9S,11S,34S)-4-chloro-1,30,30-trifluoro-34-methyl-31-oxo-8,15,26-trioxa-6,12,23,32,37-pentaazaheptacyclo[30.2.2.1^9,12.1^13,24.0^2,7.0^14,22.0^16,21]octatriaconta-2,4,6,13,16,18,20,22,24(37)-nonaene-11-carboxylic acid], the IC50 in experiment [1] (Table 1) turned out to be 68 nM; in experiment [2] (setting [5]), 190 nM; in experiment [3] (setting [6]) it was 12000 nM; in experiment [4] (setting [7]), 339 nM. In addition, the “Ratio THP(cGAMP) IC50/ THP(vir) IC50” value in experiment [3] (Table 1) was determined as 61.
As to `C[C@H]1CN2CC[C@]1(F)c1cc(Cl)cnc1O[C@H]1C[C@@H](C(=O)O)N(C1)c1nc(nc3c1oc1ccccc13)CCCCCOC2=O` [Example 22, (1R,9S,11S,34S)-4-chloro-1-fluoro-34-methyl-31-oxo-8,15,30-trioxa-6,12,23,32,37-pentaaabestacyclo[30.2.2.1^9,12.1^13,24.0^2,7.0^14,22.0^16,21]octatriaconta-2,4,6,13(37),14(22),16(21),17,19,23-nonaene-11-carboxylic acid], the IC50 in experiment [1] (Table 1) is 45 nM; in experiment [2] (setting [5]) it was 490 nM; in experiment [3] (setting [6]), more than 10000 nM; in experiment [4] (setting [7]), 1560 nM. Further, the “Ratio THP(cGAMP) IC50/ THP(vir) IC50” value in experiment [3] (Table 1) was determined as 20.
Consider `C[C@H]1CN2CC[C@]1(F)c1cc(Cl)cnc1O[C@H]1C[C@@H](C(=O)O)N(C1)c1nc(nc3c1oc1ccccc13)COC(=O)CCC2=O` [Example 11, (1R,9S,11S,33S)-4-Chloro-1-fluoro-33-methyl-27,30-dioxo-8,15,26-trioxa-6,12,23,31,36-pentaazaheptacyclo[29.2.2.1^9,12.1^13,24.0^2,7.0^14,22.0^16,21]heptatriaconta-2,4,6,13(36),14(22),16(21),17,19,23-nonaene-11-carboxylic acid], for which the concentration for half-maximal inhibition (IC50) in experiment [1] (Table 1) is 2.8 nM; in experiment [2] (setting [5]) it was 11 nM; in experiment [3] (setting [6]), more than 10000 nM; in experiment [4] (setting [7]) it was 9 nM. Also, in experiment [3] (Table 1), the “Ratio THP(cGAMP) IC50/ THP(vir) IC50” value worked out at 902.
Regarding `C[C@H]1CN2CC[C@]1(F)c1cc(Cl)cnc1O[C@H]1C[C@@H](C(=O)O)N(C1)c1nc(nc3c1oc1ccccc13)CCCCOC2=O` [Example 35, (1R,9S,11S,33S)-4-chloro-1-fluoro-33-methyl-30-oxo-8,15,29-trioxa-6,12,23,31,36-pentaazaheptacyclo[29.2.2.1^9,12.1^13,24.0^2,7.0^14,22.0^16,21]heptatriaconta-2,4,6,13(36),14(22),16(21),17,19,23-nonaene-11-carboxylic acid], the half-inhibitory concentration (IC50) came out at 830 nM in experiment [2] (setting [5]) and 409 nM in experiment [4] (setting [7]).
`Cc1nc(N2C[C@@H](Cc3nn[nH]n3)C[C@H]2C(=O)O)c2oc3ccccc3c2n1` [Example No. 25 of WO 2020/142729, reference compound]: the 50% inhibitory concentration (IC50) is 55 nM in experiment [1] (Table 2, compounds from WO 2020/142729 re-tested in the applicant's assay) and 17000 nM in experiment [2] (virus-stimulated THP1 cells, read-out: THP1(vir) IC50).
Turning to `Cc1nc(N2C[C@@H](Cc3nn[nH]n3)C[C@H]2C(=O)O)c2oc3ccccc3c2n1` [Example 25], the IC50 in experiment [2] (Table 2, compounds from WO 2020/142729, read-out: THP1(vir) IC50) was more than 17000 nM; in experiment [3] (Table 2, compounds from WO 2020/142729, read-out: THP1(cGAMP) IC50) it was more than 17000 nM; in experiment [4] (Table 2, compounds from WO 2020/142729) it was more than 9990 nM.
